Consider nine compounds from patent US20230416258A1, “BENZ[…], AND PREPARATION METHOD THEREFOR AND USE THEREOF” (CHINA PHARMACEUTICAL UNIVERSITY, priority 2020, published 2023).

The EC50 is the concentration at which the effect is half-maximal.

Molecules are shown by their SMILES. Where two headings read alike, the source gives them in different places.

For one data set, the system named is KM mice. The data set is described as follows: Test for drug-induced disappearance of righting reflex in mice. The settings on record: single rapid bolus via tail vein. It counts as in vivo. In short, it runs like this: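 Latency to, and duration of, righting reflex loss were recorded after one fast tail-vein bolus. Animals: randomized female KM mice weighing 18–25 g.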

The subject of data set [1] is SD rats. Description: Test for drug-induced disappearance of righting reflex in rats. To be noted: single rapid bolus via tail vein. Format: in vivo. The text has this: In anesthetic drug experiments, latency generally refers to the time from the start of administration to the loss of consciousness of the subject. The shorter latency is preferred, indicating a rapid onset of action after administration. The duration of anesthesia generally refers to the duration of time from the loss of consciousness to the restoration of consciousness of the subject. The duration of the drug will vary from animal model to animal species. Too long anesthesia may produce adverse cardiovascular and respiratory responses, such as adverse neurological effects to the subject, including sleepiness and dizziness; meanwhile, too short duration of anesthesia may affect the anesthesia effect, causing problems such as increase of anesthesia dosage during the operation.
SD rats (male, 200-280 g) were randomly grouped and subjected to a single administration by rapid bolus via the tail vein. The latency and duration of righting reflex in the rats were recorded.

A further data set has as its system hCMEC/D3 cells. The data set is described as follows: Rate of drug passing through in vitro blood-brain barrier (Transwell). Format: in vitro ADME. The settings on record: hCMEC/D3 monolayer, compound 0.1 mg/mL. The method, then: A Transwell device (pore size: 5.0 μm) was placed in a 24-well cell culture well; then hCMEC/D3 cells at 1×10^5 cells/mL were transferred to the upper microwells of Transwell at 150 μL/well, and cell culture medium was added to the lower microwells. After the bottom was covered by a single layer of the cells, the medium in the wells was replaced with EBM-2 complete medium containing 1% FBS, and the cells were cultured in a CO2 incubator for 10 days until a fully dense single layer of the cells was formed. When a fully dense single layer of the cells was formed, the compound at 0.1 mg/mL was added to the lower medium, and after 5 min, the concentration of the compound in the upper medium was measured to calculate the permeability:
Pcompound%=Cupper compound/Clower compound×100%

For data set [2], the system named is GABA-activated Cl− current (GABAA receptor) in HEK 293T cells. Description: Effect of drugs on GABA-activated current in cells by cell patch clamp. Format: cell-based. To be noted: for Enhancement percentage Emax for 2 μM GABA current (within 3-30 μM): corresponding concentration 20 μM. The method, then:
Test compounds were dissolved at various concentrations in an extracellular buffer (140 mM NaCl, 4.7 mM KCl, 10 mM HEPES, 2 mM CaCl2), 10 mM glucose, 1 mM MgCl2, pH 7.4). HEK 293T cells were seeded on glass coverslips and cultured in DMEM media at 37° C. with 5% CO2 for 24 h. GABA Cl^− current was subjected to whole cell recording using an HEKA EPC 10USB patch clamp amplifier. 2 μM GABA was used for exciting Cl^− current, with the membrane potential clamped at −60 mV. The cells were treated with the test compound and 2 μM GABA simultaneously, and the induction effect on and Emax of Cl^− current in the same cell were recorded.
Maximum enhancement percentage Emax for 2 μM GABA current and corresponding concentration (μM): 100% for normal humans. The greater the percentage, the lower the corresponding concentration, and the greater the depth of anesthesia.
A general note: Patch clamp records ionic current or voltage across a cell membrane.

The subject of data set [3] is SD rats. The data set is described as follows: Induction of anesthesia in rats by continuous infusion of drug for 20 min. Format: in vivo. The settings on record: initial dose 20 mg/kg bolus, maintenance dose 0.2 (mg/kg)/min for 20 min, after infusion completed. The protocol: SD rats (male, 200-280 g) were randomly grouped and subjected to administration of an initial dose by rapid bolus via the tail vein, followed by a continuous infusion with a maintenance dose for 20 min.
After the infusion was completed, the duration of the righting reflex and the time from wake-up to recovery in rats were recorded.

Setting [4] is: read-out: Positive enhancement EC50 (μM) for 2 μM GABA-induced current, −60 mV.
The mark [5] stands for this setting: 2 μM GABA, −60 mV, read-out: Positive enhancement EC50 (μM) for 2 μM GABA-induced current.

In the data set with KM mice (60 mg/kg), `COC(=O)CC[C@@H]1N=C(c2ccccc2Cl)c2cc([N+](=O)[O-])ccc2-n2c(SC)nnc21` [Compound 25, methyl (S)-3-(8-nitro-6-(2-chlorophenyl)-1-(methylthio)-4H-benzo[f][1,2,4]triazolo[4,3-a][1,4]diazepin-4-yl)propionate] registered a Duration of 5.89 min and a Latency of 0.31 min. For the same compound, in the data set on SD rats [1], the Latency is recorded as 0.45 min. The “In vitro blood-brain barrier, compound permeability at 5 min” value (from here on “In vitro blood-brain barrier”) in the data set with hCMEC/D3 cells is reported as 81.5%. For the same compound, in data set [2] (setting [4]), the 50% effective concentration (EC50) stood at 0.64 µM. Besides, the “Enhancement percentage Emax for 2 μM GABA current (within 3-30 μM)” value (shortened to “Enhancement percentage Emax”) in data set [2] (−60 mV) was 242% (20 μM). Besides, in the data set with SD rats [3], the Duration of anesthesia is on record as 7.35 min and the “Time from wake-up to recovery” value is given as 10.2 min.

Take `CCSc1nnc2n1-c1ccc(Cl)cc1C(c1ccccc1Cl)=N[C@H]2CCC(=O)OC` [Compound 26, methyl (S)-3-(8-chloro-6-(2-chlorophenyl)-1-(ethylthio)-4H-benzo[f][1,2,4]triazolo[4,3-a][1,4]diazepin-4-yl)propionate]: the Duration in the data set on KM mice (30 mg/kg) came to 3.57 min; with KM mice (60 mg/kg), 8.06 min. In addition, the values for the Latency in the data set with KM mice (30 mg/kg), in the data set with KM mice (60 mg/kg) and in the data set on SD rats [1] were 1.5 min, 0.18 min and 0.36 min, respectively. Further, in the data set with hCMEC/D3 cells, the “In vitro blood-brain barrier” value was 52.8%. Further, the EC50 in data set [2] (setting [4]) was 0.71 µM. Also, the “Enhancement percentage Emax” value in data set [2] (−60 mV) is listed as 249% (20 μM). The same compound registered a Duration of anesthesia in the data set with SD rats [3] of 8.22 min. Further, the “Time from wake-up to recovery” value in the data set on SD rats [3] is listed as 9.46 min.

In the data set on KM mice (30 mg/kg), `CCCSc1nnc2n1-c1ccc(Cl)cc1C(c1ccccc1Cl)=N[C@H]2CCC(=O)OC` [Compound 29, methyl (S)-3-(8-chloro-6-(2-chlorophenyl)-1-(propylthio)-4H-benzo[f][1,2,4]triazolo[4,3-a][1,4]diazepin-4-yl)propionate] registered a Duration of 9.25 min and a Latency of 0.57 min. The Latency with SD rats [1] is recorded as 0.86 min. In addition, the “In vitro blood-brain barrier” value in the data set with hCMEC/D3 cells was determined as 77.6%. In addition, the EC50 in data set [2] (setting [4]) was 0.74 µM. In addition, the “Enhancement percentage Emax” value in data set [2] (−60 mV) is 251% (20 μM). Further, in the data set on SD rats [3], the Duration of anesthesia is reported as 9.18 min and the “Time from wake-up to recovery” value was found to be 13.6 min.

On to `COC(=O)CC[C@@H]1N=C(c2ccccc2Cl)c2cc([N+](=O)[O-])ccc2-n2c(SCCO)nnc21` [Compound 34, methyl (S)-3-(8-nitro-6-(2-chlorophenyl)-1-((2-hydroxyethyl)thio)-4H-benzo[f][1,2,4]triazolo[4,3-a][1,4]diazepin-4-yl)propionate], for which, in the data set on KM mice (30 mg/kg), the Duration was 21.9 min and the Latency was found to be 0.3 min. The compound further registered a Latency with SD rats [1] of 0.22 min. The “In vitro blood-brain barrier” value with hCMEC/D3 cells was 85.6%. Moreover, the EC50 in data set [2] (setting [4]) worked out at 0.38 µM. Further, in data set [2] (−60 mV), the “Enhancement percentage Emax” value was 302% (20 μM). Moreover, in the data set on SD rats [3], the Duration of anesthesia was 48.2 min and the “Time from wake-up to recovery” value was 35.6 min.

`COC(=O)CC[C@@H]1N=C(c2ccccc2Cl)c2cc([N+](=O)[O-])ccc2-n2c(SCCN)nnc21` [Compound 37, methyl (S)-3-(8-nitro-6-(2-chlorophenyl)-1-((2-aminoethyl)thio)-4H-benzo[f][1,2,4]triazolo[4,3-a][1,4]diazepin-4-yl) propionate]: the Duration is given as 7.63 min in the data set with KM mice (30 mg/kg), 7.68 min with KM mice (60 mg/kg) and 25.1 min with SD rats [1]. The Latency with KM mice (30 mg/kg) is recorded as 0.49 min; in the data set on KM mice (60 mg/kg), 0.21 min; in the data set with SD rats [1] it was 0.22 min. In the data set with hCMEC/D3 cells, the “In vitro blood-brain barrier” value stood at 84.6%. In addition, the half-maximal effective concentration (EC50) in data set [2] (setting [5]) came to 0.53 µM. The “Enhancement percentage Emax” value in data set [2] (−60 mV) is 267% (20 μM). The Duration of anesthesia in the data set on SD rats [3] is reported as 6.68 min. Further, in the data set on SD rats [3], the “Time from wake-up to recovery” value was 10.5 min.

In the data set on KM mice (60 mg/kg), `COC(=O)CC[C@@H]1N=C(c2ccccc2F)c2cc(Cl)ccc2-n2c(SCCN3CCOCC3)nnc21` [Compound 51, methyl (S)-3-(8-chloro-6-(2-fluorophenyl)-1-((2-morpholinoethyl)thio)-4H-benzo[f][1,2,4]triazolo[4,3-a][1,4]diazepin-4-yl)propionate] gave a Duration of 8.46 min and a Latency of 0.25 min. In the data set on KM mice (100 mg/kg), this compound gave a Duration of 14.6 min and a Latency of 0.16 min. In the data set with SD rats [1], this compound returned a Latency of 0.27 min. Further, the “In vitro blood-brain barrier” value in the data set on hCMEC/D3 cells is 78.6%. Besides, in data set [2] (setting [4]), the EC50 is 0.41 µM. Moreover, in data set [2] (−60 mV), the “Enhancement percentage Emax” value is 304% (20 μM). Moreover, in the data set with SD rats [3], the Duration of anesthesia was determined as 8.36 min and the “Time from wake-up to recovery” value is recorded as 22.6 min.

For `COC(=O)CC[C@@H]1N=C(c2ccccc2Cl)c2cc(Cl)ccc2-n2c(SCCN3CCCC3)nnc21` [Compound 119, methyl (S)-3-(8-chloro-6-(2-chlorophenyl)-1-(2-((pyrrolidin-1-yl)ethyl)thio)-4H-benzo[f][1,2,4]triazolo[4,3-a][1,4]diazepin-4-yl)propionate], in the data set on KM mice (30 mg/kg), the Duration is given as 30.86 min and the Latency is reported as 0.46 min. In addition, in the data set with SD rats [1], the Duration is reported as 13.27 min and the Latency stood at 0.43 min. In addition, the “In vitro blood-brain barrier” value in the data set on hCMEC/D3 cells was 83.3%. Besides, the concentration for a half-maximal effect (EC50) in data set [2] (setting [5]) was 0.43 µM. Also, the “Enhancement percentage Emax” value in data set [2] (−60 mV) was 278% (20 μM). For the same compound, in the data set on SD rats [3], the Duration of anesthesia is reported as 12.83 min and the “Time from wake-up to recovery” value is 32.7 min.

For the compound `COC(=O)CC[C@@H]1N=C(c2ccccc2Cl)c2cc(Cl)ccc2-n2c(SCC(=O)N3CCN(C)CC3)nnc21` [Compound 129, methyl (S)-3-(8-chloro-6-(2-chlorophenyl)-1-((2-(4-methylpiperazin-1-yl)2-oxyethyl)thio)-4H-benzo[f][1,2,4]triazolo[4,3-a][1,4]diazepin-4-yl)propionate], in the data set with KM mice (30 mg/kg), the Duration is on record as 13.27 min and the Latency was 0.56 min. In the data set on SD rats [1], this compound gave a Duration of 17.28 min and a Latency of 0.37 min. In addition, in the data set with hCMEC/D3 cells, the “In vitro blood-brain barrier” value came out at 75.9%. The concentration for a half-maximal effect (EC50) in data set [2] (setting [5]) is 0.42 µM. Moreover, the “Enhancement percentage Emax” value in data set [2] (−60 mV) is 257% (20 μM). Further, in the data set on SD rats [3], the Duration of anesthesia came to 10.22 min and the “Time from wake-up to recovery” value is on record as 17.7 min.

In the data set with KM mice (30 mg/kg), `COC(=O)CC[C@@H]1N=C(c2ccccc2Cl)c2cc(Cl)ccc2-n2c(Sc3cn(C)cn3)nnc21` [Compound 141, methyl (S)-3-(8-chloro-6-(2-chlorophenyl)-1-((1-methyl-1H-imidazol-4-yl)thio)-4H-benzo[f][1,2,4]triazolo[4,3-a][1,4]diazepin-4-yl)propionate] returned a Duration of 8.76 min and a Latency of 0.74 min. Moreover, the Latency in the data set with SD rats [1] is reported as 0.21 min. Moreover, the “In vitro blood-brain barrier” value in the data set on hCMEC/D3 cells is 76.6%. Also, the EC50 in data set [2] (setting [4]) turned out to be 0.61 µM. In addition, the “Enhancement percentage Emax” value in data set [2] (−60 mV) is given as 295% (20 μM). Further, in the data set on SD rats [3], the Duration of anesthesia came to 13.21 min and the “Time from wake-up to recovery” value stood at 22.19 min.
